Reference: PubChem BioAssay AID180 (DTP/NCI, 2004)
Several values for one entry are separate records, joined by “and”; a condition that tells them apart may be missing. Identical values can stand only once.

Test system: BDF1 mice, Adenocarcinoma 755 s.c., tumor weight T/C
Experiment: NCI In Vivo Anticancer Drug Screen. Data for tumor model Adenocarcinoma 755 (subcutaneous) in B6D2F1 (BDF1) mice
Conditions: endpoint: mean tumor weight, higher = larger tumour
Outline: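 Compound activity was tested in mice carrying transplanted tumors. Survival or tumor size was measured, and each value is the treated-group measurement divided by that of the vehicle-treated control group (T/C).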

[1] = dose: 10.0 mg/kg/injection, schedule: Q01DX011 (ip), vehicle: carboxymethylcellulose (CMC)
[2] = dose: 20.0 mg/kg/injection, schedule: Q01DX011 (ip), vehicle: carboxymethylcellulose (CMC)
[3] = dose: 20.0 mg/kg/injection, schedule: Q01DX011 (ip), vehicle: methylcellulose (MC)
[4] = dose: 40.0 mg/kg/injection, schedule: Q01DX011 (ip), vehicle: carboxymethylcellulose (CMC)
[5] = dose: 80.0 mg/kg/injection, schedule: Q01DX011 (ip), vehicle: carboxymethylcellulose (CMC)
[6] = dose: 80.0 mg/kg/injection, schedule: Q01DX011 (ip), vehicle: methylcellulose (MC)
[7] = dose: 25.0 mg/kg/injection, schedule: Q01DX011 (ip), vehicle: methylcellulose (MC)
[8] = dose: 50.0 mg/kg/injection, schedule: Q01DX011 (ip), vehicle: methylcellulose (MC)
[9] = dose: 100.0 mg/kg/injection, schedule: Q01DX011 (ip), vehicle: methylcellulose (MC)
[10] = dose: 30.0 mg/kg/injection, schedule: Q01DX011 (ip), vehicle: carboxymethylcellulose (CMC)
[11] = dose: 60.0 mg/kg/injection, schedule: Q01DX011 (ip), vehicle: carboxymethylcellulose (CMC)
[12] = dose: 120.0 mg/kg/injection, schedule: Q01DX011 (ip), vehicle: carboxymethylcellulose (CMC)
[13] = dose: 35.0 mg/kg/injection, schedule: Q01DX011 (ip), vehicle: saline
[14] = dose: 70.0 mg/kg/injection, schedule: Q01DX011 (ip), vehicle: saline
[15] = dose: 7.5 mg/kg/injection, schedule: Q01DX011 (ip), vehicle: carboxymethylcellulose (CMC)
[16] = dose: 15.0 mg/kg/injection, schedule: Q01DX011 (ip), vehicle: carboxymethylcellulose (CMC)

SMILES: COC(C(O)C(O)C(O)C(O)CO)n1cnc2cncnc21 (stereo not drawn)
- T/C (dose: 19.0 mg/kg/injection, schedule: Q01DX011 (ip), vehicle: carboxymethylcellulose (CMC)): 115 % of control
- T/C (dose: 57.0 mg/kg/injection, schedule: Q01DX011 (ip), vehicle: carboxymethylcellulose (CMC)): 152 % of control

SMILES: Cc1cc(=O)c2c(C)cccc2[nH]1
- T/C [1]: 112 % of control
- T/C (dose: 10.0 mg/kg/injection, schedule: Q01DX011 (ip), vehicle: methylcellulose (MC)): 60 % of control
- T/C [2]: 105 % of control
- T/C [3]: 59 % of control
- T/C [4]: 86 % of control
- T/C (dose: 40.0 mg/kg/injection, schedule: Q01DX011 (ip), vehicle: methylcellulose (MC)): 72 % of control
- T/C [5]: 58 % of control and 60 % of control and 75 % of control
- T/C [6]: 57 % of control
- T/C (dose: 160.0 mg/kg/injection, schedule: Q01DX011 (ip), vehicle: carboxymethylcellulose (CMC)): 106 % of control
- T/C (dose: 320.0 mg/kg/injection, schedule: Q01DX011 (ip), vehicle: carboxymethylcellulose (CMC)): 106 % of control

SMILES: Cn1c(=O)c2[nH]c(N/N=C/c3ccccc3)nc2n(C)c1=O
- T/C [3]: 56 % of control
- T/C [7]: 45 % of control and 53 % of control
- T/C [6]: 73 % of control
- T/C (dose: 225.0 mg/kg/injection, schedule: Q01DX011 (ip), vehicle: methylcellulose (MC)): 41 % of control and 46 % of control

SMILES: Nc1nc(-c2cccnc2)nc(N)c1N=O
- T/C (dose: 31.0 mg/kg/injection, schedule: Q01DX011 (ip), vehicle: methylcellulose (MC)): 120 % of control
- T/C (dose: 62.0 mg/kg/injection, schedule: Q01DX011 (ip), vehicle: methylcellulose (MC)): 166 % of control
- T/C (dose: 125.0 mg/kg/injection, schedule: Q01DX011 (ip), vehicle: methylcellulose (MC)): 119 % of control
- T/C (dose: 250.0 mg/kg/injection, schedule: Q01DX011 (ip), vehicle: methylcellulose (MC)): 81 % of control

SMILES: Nc1ncnc2c1ncn2C1CCCC(CO)O1 (stereo not drawn)
- T/C (dose: 50.0 mg/kg/injection, schedule: Q01DX011 (ip), vehicle: saline): 196 % of control
- T/C (dose: 100.0 mg/kg/injection, schedule: Q01DX011 (ip), vehicle: saline): 115 % of control
- T/C (dose: 200.0 mg/kg/injection, schedule: Q01DX011 (ip), vehicle: saline): 93 % of control

SMILES: O=C(C1C(c2ccccc2)N1Cc1ccccc1)C1C(c2ccccc2)N1Cc1ccccc1 (stereo not drawn)
- T/C [7]: 47 % of control
- T/C [8]: 77 % of control
- T/C [9]: 66 % of control

SMILES: COc1cc(N=Nc2cccc(S(=O)(=O)O)c2)ccc1NC(=O)c1ccc(C(=O)Nc2ccc(N=Nc3cccc(S(=O)(=O)O)c3)cc2OC)cc1
- T/C [10]: 102 % of control
- T/C [11]: 105 % of control
- T/C [12]: 82 % of control
- T/C (dose: 240.0 mg/kg/injection, schedule: Q01DX011 (ip), vehicle: carboxymethylcellulose (CMC)): 57 % of control

SMILES: COc1cc2c3c(c4cc(OC)c(OC)cc4c2cc1OC)CN1CCC[C@H]1C3
- T/C (dose: 8.8 mg/kg/injection, schedule: Q01DX006 (ip), vehicle: water): 89 % of control and 71 % of control
- T/C (dose: 20.0 mg/kg/injection, schedule: Q01DX006 (ip), vehicle: water): 50 % of control

SMILES: O=c1ccn(C2OC(CO)C(O)C2O)c(=O)[nH]1 (stereo not drawn)
- T/C (dose: 17.5 mg/kg/injection, schedule: Q01DX011 (ip), vehicle: other): 57 % of control
- T/C (dose: 35.0 mg/kg/injection, schedule: Q01DX011 (ip), vehicle: other): 39 % of control
- T/C [13]: 30 % of control
- T/C (dose: 70.0 mg/kg/injection, schedule: Q01DX011 (ip), vehicle: other): 105 % of control
- T/C [14]: 75 % of control
- T/C (dose: 140.0 mg/kg/injection, schedule: Q01DX011 (ip), vehicle: other): 82 % of control
- T/C (dose: 140.0 mg/kg/injection, schedule: Q01DX011 (ip), vehicle: saline): 32 % of control
- T/C (dose: 280.0 mg/kg/injection, schedule: Q01DX011 (ip), vehicle: other): 56 % of control
- T/C (dose: 280.0 mg/kg/injection, schedule: Q01DX011 (ip), vehicle: saline): 42 % of control

SMILES: CC(C)Cn1cnc2c(SCc3ccccn3)nc(N)nc21
- T/C [3]: 5 % of control
- T/C (dose: 65.0 mg/kg/injection, schedule: Q01DX011 (ip), vehicle: methylcellulose (MC)): 1 % of control

SMILES: CN(C)c1ccc(Nc2c3ccccc3nc3ccccc23)cc1
- T/C (dose: 9.0 mg/kg/injection, schedule: Q01DX011 (ip), vehicle: saline): 70 % of control
- T/C (dose: 18.0 mg/kg/injection, schedule: Q01DX011 (ip), vehicle: saline): 91 % of control
- T/C [13]: 75 % of control
- T/C [14]: 39 % of control

SMILES: C[C@]12CC[C@H](O)CC1=CC[C@@H]1[C@@H]2[C@@H](O)C[C@@]2(C)[C@H]1CC[C@]2(C)O
- T/C (dose: 100.0 mg/kg/injection, schedule: Q01DX011 (sc), vehicle: steriod suspending solution): 96 % of control
- T/C (dose: 300.0 mg/kg/injection, schedule: Q01DX011 (sc), vehicle: steriod suspending solution): 93 % of control

SMILES: CNC(=O)C(C)C
- T/C (dose: 31.2 mg/kg/injection, schedule: Q01DX011 (ip), vehicle: other): 44 % of control
- T/C (dose: 62.5 mg/kg/injection, schedule: Q01DX011 (ip), vehicle: other): 90 % of control
- T/C (dose: 125.0 mg/kg/injection, schedule: Q01DX011 (ip), vehicle: other): 90 % of control
- T/C (dose: 250.0 mg/kg/injection, schedule: Q01DX011 (ip), vehicle: other): 77 % of control

SMILES: CC1(C)O[C@@H]2C[C@H]3[C@@H]4CCC5=CC(=O)C=C[C@]5(C)[C@@]4(F)[C@@H](O)C[C@]3(C)[C@]2(C(=O)CO)O1
- T/C (dose: 0.7 mg/kg/injection, schedule: Q01DX011 (sc), vehicle: steriod suspending solution): 38 % of control
- T/C (dose: 3.0 mg/kg/injection, schedule: Q01DX011 (sc), vehicle: steriod suspending solution): 53 % of control
- T/C (dose: 6.0 mg/kg/injection, schedule: Q01DX011 (sc), vehicle: steriod suspending solution): 40 % of control

SMILES: O=C(O)CC(O)(CC(=O)O)C(=O)O.[Ga]
- T/C (dose: 0.15 mg/kg/injection, schedule: Q01DX011 (ip), vehicle: carboxymethylcellulose (CMC)): 101 % of control
- T/C (dose: 0.3 mg/kg/injection, schedule: Q01DX011 (ip), vehicle: carboxymethylcellulose (CMC)): 67 % of control
- T/C (dose: 0.31 mg/kg/injection, schedule: Q01DX011 (ip), vehicle: carboxymethylcellulose (CMC)): 58 % of control
- T/C (dose: 0.6 mg/kg/injection, schedule: Q01DX011 (ip), vehicle: carboxymethylcellulose (CMC)): 72 % of control
- T/C (dose: 0.62 mg/kg/injection, schedule: Q01DX011 (ip), vehicle: carboxymethylcellulose (CMC)): 55 % of control
- T/C (dose: 1.2 mg/kg/injection, schedule: Q01DX011 (ip), vehicle: carboxymethylcellulose (CMC)): 42 % of control and 62 % of control
- T/C (dose: 1.25 mg/kg/injection, schedule: Q01DX011 (ip), vehicle: carboxymethylcellulose (CMC)): 25 % of control and 36 % of control
- T/C [2]: 5 % of control and 18 % of control
- T/C [4]: 5 % of control
- T/C [5]: 2 % of control

SMILES: CN(C)c1nc(Cl)nc2c1nc(Cl)n2C1CCCCO1 (stereo not drawn)
- T/C [10]: 102 % of control
- T/C [11]: 85 % of control
- T/C [12]: 68 % of control

SMILES: CC1CN1P(=O)(OCCC#N)N1CC1C (stereo not drawn)
- T/C (dose: 28.0 mg/kg/injection, schedule: Q01DX011 (ip), vehicle: saline): 90 % of control
- T/C (dose: 56.0 mg/kg/injection, schedule: Q01DX011 (ip), vehicle: saline): 104 % of control
- T/C (dose: 113.0 mg/kg/injection, schedule: Q01DX011 (ip), vehicle: saline): 77 % of control
- T/C (dose: 225.0 mg/kg/injection, schedule: Q01DX011 (ip), vehicle: saline): 10 % of control

SMILES: O=C(O)C(=O)c1ccc(-c2ccccc2)cc1
- T/C (dose: 3.7 mg/kg/injection, schedule: Q01DX011 (ip), vehicle: carboxymethylcellulose (CMC)): 99 % of control
- T/C [15]: 100 % of control
- T/C [16]: 87 % of control

SMILES: CCCN(C)/N=N/c1nc[nH]c1C(N)=O
- T/C (dose: 5.0 mg/kg/injection, schedule: Q01DX011 (ip), vehicle: carboxymethylcellulose (CMC)): 91 % of control
- T/C [15]: 87 % of control
- T/C [1]: 51 % of control
- T/C [16]: 47 % of control
- T/C [2]: 39 % of control
- T/C [10]: 30 % of control
- T/C [4]: 37 % of control

SMILES: CCOC(=O)C(C)(C)Br
- T/C [8]: 85 % of control
- T/C [9]: 107 % of control
- T/C (dose: 200.0 mg/kg/injection, schedule: Q01DX011 (ip), vehicle: methylcellulose (MC)): 47 % of control
- T/C (dose: 400.0 mg/kg/injection, schedule: Q01DX011 (ip), vehicle: methylcellulose (MC)): 18 % of control
- T/C (dose: 500.0 mg/kg/injection, schedule: Q01DX011 (ip), vehicle: methylcellulose (MC)): 13 % of control
